Laboratory results reported in US5416081A, “Cephalosporin compounds” (Lucky Limited, priority 1992, dated 1995).
Values after ≈ are worked out from the molar mass of the structure shown. Where two headings read alike, the source gives them in different places.

Key:
Type in all cases: cell-based
S. aureus/giorigio = experiment: MIC against standard strain by two-fold agar dilution, S. aureus/giorigio; settings: Staphylococcus aureus
Procedure: (§1) These MIC values were taken by employing a two-fold dilution method: that is, two-fold serial dilutions of each of the test compounds were made and dispersed in a Muller-Hinton agar medium; 2 μl of the standard test strain which had the 10^7 CFU(Colony Forming Unit) per ml was inoculated on the medium; and these were incubated at 37° C. for 20 hours.

E. coli TEM5/3739E = experiment: MIC against standard strain by two-fold agar dilution, E. coli TEM5/3739E; settings: Escherichia coli, 20 h
Procedure: as §1

P. aeruginosa/10145 = experiment: MIC against standard strain by two-fold agar dilution, P. aeruginosa/10145; settings: Pseudomonas aeruginosa; P. aeruginosa/10145; Muller-Hinton agar, 37° C., 20 hours; read-out: MIC
Procedure: as §1

A. calcoaceticus /15473A = experiment: MIC against standard strain by two-fold agar dilution, A. calcoaceticus /15473A; settings: Acinetobacter calcoaceticus; A. calcoaceticus /15473A; Muller-Hinton agar, 37° C., 20 hours; read-out: MIC
Procedure: as §1

E. cloacae/1194E = experiment: MIC against standard strain by two-fold agar dilution, E. cloacae/1194E; settings: Enterobacter cloacae; E. cloacae/1194E; Muller-Hinton agar, 37° C., 20 hours; read-out: MIC
Procedure: as §1

E. coli TEM1/1193E = experiment: MIC against standard strain by two-fold agar dilution, E. coli TEM1/1193E; settings: Escherichia coli, 20 h
Procedure: as §1

E. coli TEM9/2639E = experiment: MIC against standard strain by two-fold agar dilution, E. coli TEM9/2639E; settings: Escherichia coli, 20 h
Procedure: as §1

S. aureus/6538pA = experiment: MIC against standard strain by two-fold agar dilution, S. aureus/6538pA; settings: Staphylococcus aureus
Procedure: as §1

S. aureus/77 = experiment: MIC against standard strain by two-fold agar dilution, S. aureus/77; settings: Staphylococcus aureus
Procedure: as §1

E. coli/3190Y = experiment: MIC against standard strain by two-fold agar dilution, E. coli/3190Y; settings: Escherichia coli
Procedure: as §1

P. aeruginosa/6065Y = experiment: MIC against standard strain by two-fold agar dilution, P. aeruginosa/6065Y; settings: Pseudomonas aeruginosa; P. aeruginosa/6065Y; Muller-Hinton agar, 37° C., 20 hours; read-out: MIC
Procedure: as §1

S. marcescens/1826E = experiment: MIC against standard strain by two-fold agar dilution, S. marcescens/1826E; settings: Serratia marcescens; S. marcescens/1826E; Muller-Hinton agar, 37° C., 20 hours; read-out: MIC
Procedure: as §1

P. aeruginosa/1912E = experiment: MIC against standard strain by two-fold agar dilution, P. aeruginosa/1912E; settings: Pseudomonas aeruginosa; P. aeruginosa/1912E; Muller-Hinton agar, 37° C., 20 hours; read-out: MIC
Procedure: as §1

S. typhimunium/14028A = experiment: MIC against standard strain by two-fold agar dilution, S. typhimunium/14028A; settings: S. typhimunium/14028A; Muller-Hinton agar, 37° C., 20 hours; read-out: MIC
Procedure: as §1

K. aerogenes/1776E = experiment: MIC against standard strain by two-fold agar dilution, K. aerogenes/1776E; settings: Klebsiella aerogenes; K. aerogenes/1776E; Muller-Hinton agar, 37° C., 20 hours; read-out: MIC
Procedure: as §1

E. coli/10536 = experiment: MIC against standard strain by two-fold agar dilution, E. coli/10536; settings: Escherichia coli
Procedure: as §1

[1] = S. aureus/77, Muller-Hinton agar, 37° C., 20 hours, read-out: MIC
[2] = E. coli/3190Y, Muller-Hinton agar, 37° C., 20 hours, read-out: MIC
[3] = S. aureus/giorigio, Muller-Hinton agar, 37° C., 20 hours, read-out: MIC
[4] = S. aureus/6538pA, Muller-Hinton agar, 37° C., 20 hours, read-out: MIC
[5] = E. coli/10536, Muller-Hinton agar, 37° C., 20 hours, read-out: MIC

Compound | MIC (E. coli TEM5/3739E) [µg/mL] | MIC (P. aeruginosa/10145) [µg/mL] | MIC (A. calcoaceticus /15473A) [µg/mL] | MIC (E. cloacae/1194E) [µg/mL] | MIC (E. coli TEM1/1193E) [µg/mL] | MIC (E. coli TEM9/2639E) [µg/mL] | MIC (S. aureus/6538pA; 20 h) [µg/mL] | MIC (S. aureus/77; [1]) [µg/mL] | MIC (E. coli/3190Y; [2]) [µg/mL] | MIC (P. aeruginosa/6065Y) [µg/mL] | MIC (S. marcescens/1826E) [µg/mL] | MIC (P. aeruginosa/1912E) [µg/mL] | MIC (S. typhimunium/14028A) [µg/mL] | MIC (K. aerogenes/1776E) [µg/mL] | MIC (S. aureus/giorigio; [3]) [µg/mL] | MIC (S. aureus/6538pA; [4]) [µg/mL] | MIC (E. coli/10536; [5]) [µg/mL] | further results
CC(C)(O/N=C(\C(=O)NC1C(=O)N2C(C(=O)[O-])=C(CSc3nc(N)c4c([n+]3N)CCC4)CSC12)c1csc(N)n1)C(=O)O (stereo not shown) [Compound I-1, 7-[(Z)-2-(2-aminothiazol-4-yl)-2-(2-carboxyprop-2-oxyimino)acetamido]-3-(1,4-diamino-1,5,6,7-tetrahydro-cyclopentapyrimidinium-2-yl)thiomethyl-3-cephem-4-carboxylate] | 0.25 (≈ 0.385 µM) | 1 (≈ 1.54 µM) | 2 (≈ 3.08 µM) | 4 (≈ 6.16 µM) | 0.063 (≈ 0.097 µM) | 2 (≈ 3.08 µM) | 2 (≈ 3.08 µM) | 4 (≈ 6.16 µM) | 0.016 (≈ 0.0246 µM) | 4 (≈ 6.16 µM) | 0.25 (≈ 0.385 µM) | 0.5 (≈ 0.77 µM) | 0.13 (≈ 0.2 µM) | 0.13 (≈ 0.2 µM) | – | – | – | MIC (S. aureus/giorigio; 20 h): 1 µg/mL (≈ 1.54 µM); MIC (E. coli/10536; 20 h): 0.063 µg/mL (≈ 0.097 µM)
C[n+]1c(SCC2=C(C(=O)[O-])N3C(=O)C(NC(=O)/C(=N\OC(C)(C)C(=O)O)c4csc(N)n4)C3SC2)nc(N)c2c1CCC2 (stereo not shown) [Compound I-2, 7-[(Z)-2-(2-aminothiazol-4-yl)-2-(2-carboxyprop-2-oxyimino)acetamido]-3-(4-amino-1-methyl-1,5,6,7-tetrahydro-cyclopentapyrimidinium-2-yl)thiomethyl-3-cephem-4-carboxylate] | 0.5 (≈ 0.771 µM) | 1 (≈ 1.54 µM) | 1 (≈ 1.54 µM) | 4 (≈ 6.17 µM) | 0.13 (≈ 0.2 µM) | 2 (≈ 3.08 µM) | – | – | 0.063 (≈ 0.0971 µM) | 4 (≈ 6.17 µM) | 0.5 (≈ 0.771 µM) | 0.5 (≈ 0.771 µM) | 0.25 (≈ 0.385 µM) | 0.13 (≈ 0.2 µM) | 1 (≈ 1.54 µM) | 2 (≈ 3.08 µM) | 0.13 (≈ 0.2 µM) | MIC (S. aureus/77; 20 h): 8 µg/mL (≈ 12.3 µM)
Nc1nc(/C(=N/OCC(=O)O)C(=O)NC2C(=O)N3C(C(=O)[O-])=C(CSc4nc(N)c5c([n+]4N)CCC5)CSC23)cs1 (stereo not shown) [Compound I-8, 7-[(Z)-2-(2-aminothiazol-4-yl)-2-(1-carboxymeth-1-oxyimino)acetamido]-3-(1,4-diamino-1,5,6,7-tetrahydro-cyclopentapyrimidinium-2-yl)thiomethyl-3-cephem-4-carboxylate] | 2 (≈ 3.22 µM) | 1 (≈ 1.61 µM) | 4 (≈ 6.43 µM) | 8 (≈ 12.9 µM) | 0.28 (≈ 0.45 µM) | 2 (≈ 3.22 µM) | – | 4 (≈ 6.43 µM) | 0.063 (≈ 0.101 µM) | 4 (≈ 6.43 µM) | 0.13 (≈ 0.209 µM) | 1 (≈ 1.61 µM) | 0.25 (≈ 0.402 µM) | 0.25 (≈ 0.402 µM) | 2 (≈ 3.22 µM) | 2 (≈ 3.22 µM) | 0.016 (≈ 0.0257 µM) | –
CO/N=C(\C(=O)NC1C(=O)N2C(C(=O)[O-])=C(CSc3nc(N)c4c([n+]3N)CCC4)CSC12)c1csc(N)n1 (stereo not shown) [Compound I-10, 7-[(Z)-2-(2-aminothiazol-4-yl)-2-(methoxyimino)acetamido]-3-(1,4-diamino-1,5,6,7-tetrahydro-cyclopentapyrimidinium-2-yl)thiomethyl-3-cephem-4-carboxylate] | 0.25 (≈ 0.433 µM) | 4 (≈ 6.92 µM) | 4 (≈ 6.92 µM) | 16 (≈ 27.7 µM) | 0.016 (≈ 0.0277 µM) | 0.5 (≈ 0.866 µM) | 0.25 (≈ 0.433 µM) | 0.13 (≈ 0.225 µM) | 0.016 (≈ 0.0277 µM) | 16 (≈ 27.7 µM) | 0.25 (≈ 0.433 µM) | 2 (≈ 3.46 µM) | 0.25 (≈ 0.433 µM) | 0.5 (≈ 0.866 µM) | – | – | 0.016 (≈ 0.0277 µM) | –
Nc1nc(/C(=N/OC2(C(=O)O)CCCC2)C(=O)NC2C(=O)N3C(C(=O)[O-])=C(CSc4nc(N)c5c([n+]4N)CCC5)CSC23)cs1 (stereo not shown) [Compound I-11, 7-[(Z)-2-(2-aminothiazol-4-yl)-2-(1-carboxycyclopent-1-oxyimino)acetamido]-3-(1,4-diamino-1,5,6,7-tetrahydro-cyclopentapyrimidinium-2-yl)thiomethyl-3-cephem-4-carboxylate] | 0.25 (≈ 0.37 µM) | 1 (≈ 1.48 µM) | 1 (≈ 1.48 µM) | 4 (≈ 5.92 µM) | 0.13 (≈ 0.192 µM) | 2 (≈ 2.96 µM) | – | 16 (≈ 23.7 µM) | ≤ 0.008 | 8 (≈ 11.8 µM) | 0.25 (≈ 0.37 µM) | 0.5 (≈ 0.74 µM) | 0.25 (≈ 0.37 µM) | 0.13 (≈ 0.192 µM) | 1 (≈ 1.48 µM) | 2 (≈ 2.96 µM) | 0.016 (≈ 0.0237 µM) | –
C[n+]1c(SCC2=C(C(=O)[O-])N3C(=O)C(NC(=O)/C(=N\OC4(C(=O)O)CCCC4)c4csc(N)n4)C3SC2)nc(N)c2c1CCC2 (stereo not shown) [Compound I-12, 7-[(Z)-2-(2-aminothiazol-4-yl}-2-(1-carboxycyclopent-1-oxyimino)acetamido]-3-(4-amino-1-methyl-1,5,6,7-tetrahydro-cyclopenta-pyrimidinium-2-yl)thiomethyl-3-cephem-4-carboxylate] | 0.5 (≈ 0.741 µM) | 2 (≈ 2.96 µM) | 2 (≈ 2.96 µM) | 8 (≈ 11.9 µM) | 0.13 (≈ 0.193 µM) | 4 (≈ 5.93 µM) | – | 8 (≈ 11.9 µM) | 0.063 (≈ 0.0934 µM) | 16 (≈ 23.7 µM) | 0.25 (≈ 0.37 µM) | 1 (≈ 1.48 µM) | 0.25 (≈ 0.37 µM) | 0.13 (≈ 0.193 µM) | 2 (≈ 2.96 µM) | 2 (≈ 2.96 µM) | 0.016 (≈ 0.0237 µM) | –
C[C@H](O/N=C(\C(=O)NC1C(=O)N2C(C(=O)[O-])=C(CSc3nc(N)c4c([n+]3N)CCC4)CSC12)c1csc(N)n1)C(=O)O (stereo partly drawn) [I-5(S), 7-[(Z)-2-(2-aminothiazol-4-yl)-2-((S)-1-carboxyeth-1-oxyimino)acetamido]-3-(1,4-diamino-1,5,6,7-tetrahydro-cyclopentapyrimidinium-2-yl)thiomethyl-3-cephem-4-carboxylate] | 2 (≈ 3.15 µM) | 2 (≈ 3.15 µM) | 2 (≈ 3.15 µM) | 8 (≈ 12.6 µM) | 0.031 (≈ 0.0488 µM) | 8 (≈ 12.6 µM) | 4 (≈ 6.29 µM) | 8 (≈ 12.6 µM) | – | 8 (≈ 12.6 µM) | 0.25 (≈ 0.393 µM) | 1 (≈ 1.57 µM) | 0.25 (≈ 0.393 µM) | 0.13 (≈ 0.204 µM) | 2 (≈ 3.15 µM) | – | – | MIC (E. coli/3190Y; 20 h): ≤ 0.008 µg/mL; MIC (E. coli/10536; 20 h): 0.016 µg/mL (≈ 0.0252 µM)
C[C@H](O/N=C(\C(=O)NC1C(=O)N2C(C(=O)[O-])=C(CSc3nc(N)c4c([n+]3C)CCC4)CSC12)c1csc(N)n1)C(=O)O (stereo partly drawn) [I-6(S)] | 1 (≈ 1.58 µM) | 2 (≈ 3.15 µM) | 4 (≈ 6.3 µM) | 4 (≈ 6.3 µM) | 0.13 (≈ 0.205 µM) | 4 (≈ 6.3 µM) | – | 4 (≈ 6.3 µM) | 0.063 (≈ 0.0993 µM) | 4 (≈ 6.3 µM) | 0.25 (≈ 0.394 µM) | 1 (≈ 1.58 µM) | 0.25 (≈ 0.394 µM) | 0.13 (≈ 0.205 µM) | 2 (≈ 3.15 µM) | 4 (≈ 6.3 µM) | 0.016 (≈ 0.0252 µM) | –
